The target in assay [1] is T1, purified human platelet fibrinogen receptor (GPIIb/IIIa) (Homo sapiens, UniProt P05106+P08514).
T1 construct: is isolated from human platelet lysates; from tissue
Briefly: Test (b): GPIIb/IIIa ELISA, inhibition of biotinylated fibrinogen binding. The conditions noted are these: purified human platelet GPIIb/IIIa, ELISA. The procedure, abridged: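 GPIIb/IIIa affinity-purified from human platelet lysates was coated on plates, blocked, then incubated 2 h at 30 °C with biotinylated fibrinogen ([…]) plus compound. Bound fibrinogen detected via streptavidin/biotinylated HRP and TMB, OD at 650 nm; pIC50 for 50% binding inhibition.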

The target of assay [2] is T2, human, citrated, platelet-rich plasma (Homo sapiens, UniProt P05106+P08514).
T2 construct: aggregating human, citrated, platelet-rich plasma; endogenous in cells; host or cells: human platelets in citrated platelet-rich plasma
The assay can be described thus: Test (a): inhibition of ADP stimulated platelet aggregation (Born). It counts as cell-based. The following applies: ADP induced aggregation of human platelet-rich plasma. The procedure, abridged: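 ADP added to human citrated platelet-rich plasma to build aggregation dose-response curves, repeated with increasing test compound (generally 10-^5 M to 10-^10 M). pA2 derived from the 50% response value for ADP with vs. without compound, averaged over several concentrations.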

Where [3] appears, read: read-out: Test (b): pIC50 (-log(IC50)), 50% inhibition of biotinylated fibrinogen binding to GPIIb/IIIa (converted).
[4] abbreviates: read-out: Test (a): pA2 value indicating potency of platelet aggregation inhibition (converted).
The mark [5] stands for this setting: Test (b): pIC50 (-log(IC50)), 50% inhibition of biotinylated fibrinogen binding to GPIIb/IIIa.
Where [6] appears, read: Test (a): pA2 value indicating potency of platelet aggregation inhibition.

Where a name gives a salt, the structure may show the parent alone. Read-outs that look alike come from different tables or passages of the source. Where only a bound is given, the exact number is not on record here.

T1 sequence (P08514 32-887 limits assumed): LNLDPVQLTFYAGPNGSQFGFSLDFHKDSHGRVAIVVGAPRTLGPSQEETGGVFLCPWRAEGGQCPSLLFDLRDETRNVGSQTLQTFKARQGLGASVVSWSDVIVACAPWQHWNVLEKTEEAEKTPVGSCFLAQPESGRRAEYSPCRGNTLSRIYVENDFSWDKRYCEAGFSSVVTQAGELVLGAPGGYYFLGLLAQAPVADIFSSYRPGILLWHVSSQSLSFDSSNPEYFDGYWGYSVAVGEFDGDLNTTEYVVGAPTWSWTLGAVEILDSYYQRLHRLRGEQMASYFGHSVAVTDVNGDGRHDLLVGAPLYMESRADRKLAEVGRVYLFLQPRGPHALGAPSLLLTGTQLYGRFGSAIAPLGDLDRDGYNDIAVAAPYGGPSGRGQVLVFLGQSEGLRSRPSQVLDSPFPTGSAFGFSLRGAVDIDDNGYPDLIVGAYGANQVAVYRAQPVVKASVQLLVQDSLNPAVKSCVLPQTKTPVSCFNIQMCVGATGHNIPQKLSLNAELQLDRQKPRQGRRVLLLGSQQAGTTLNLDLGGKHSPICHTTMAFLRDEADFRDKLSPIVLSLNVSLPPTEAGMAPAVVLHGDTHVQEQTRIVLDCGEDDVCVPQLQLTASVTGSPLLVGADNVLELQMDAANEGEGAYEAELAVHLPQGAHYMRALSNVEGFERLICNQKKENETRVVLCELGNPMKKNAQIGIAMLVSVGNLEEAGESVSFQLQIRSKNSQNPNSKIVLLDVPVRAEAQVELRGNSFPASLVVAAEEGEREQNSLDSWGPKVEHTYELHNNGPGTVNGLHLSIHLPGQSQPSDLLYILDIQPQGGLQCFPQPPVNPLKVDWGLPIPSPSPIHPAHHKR
T1 sequence (P08514 891-1039 limits assumed): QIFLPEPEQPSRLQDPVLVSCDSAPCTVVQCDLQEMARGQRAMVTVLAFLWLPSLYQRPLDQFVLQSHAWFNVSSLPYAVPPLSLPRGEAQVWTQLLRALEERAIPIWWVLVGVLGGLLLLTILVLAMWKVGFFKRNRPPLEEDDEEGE
T1 sequence (P05106 27-788): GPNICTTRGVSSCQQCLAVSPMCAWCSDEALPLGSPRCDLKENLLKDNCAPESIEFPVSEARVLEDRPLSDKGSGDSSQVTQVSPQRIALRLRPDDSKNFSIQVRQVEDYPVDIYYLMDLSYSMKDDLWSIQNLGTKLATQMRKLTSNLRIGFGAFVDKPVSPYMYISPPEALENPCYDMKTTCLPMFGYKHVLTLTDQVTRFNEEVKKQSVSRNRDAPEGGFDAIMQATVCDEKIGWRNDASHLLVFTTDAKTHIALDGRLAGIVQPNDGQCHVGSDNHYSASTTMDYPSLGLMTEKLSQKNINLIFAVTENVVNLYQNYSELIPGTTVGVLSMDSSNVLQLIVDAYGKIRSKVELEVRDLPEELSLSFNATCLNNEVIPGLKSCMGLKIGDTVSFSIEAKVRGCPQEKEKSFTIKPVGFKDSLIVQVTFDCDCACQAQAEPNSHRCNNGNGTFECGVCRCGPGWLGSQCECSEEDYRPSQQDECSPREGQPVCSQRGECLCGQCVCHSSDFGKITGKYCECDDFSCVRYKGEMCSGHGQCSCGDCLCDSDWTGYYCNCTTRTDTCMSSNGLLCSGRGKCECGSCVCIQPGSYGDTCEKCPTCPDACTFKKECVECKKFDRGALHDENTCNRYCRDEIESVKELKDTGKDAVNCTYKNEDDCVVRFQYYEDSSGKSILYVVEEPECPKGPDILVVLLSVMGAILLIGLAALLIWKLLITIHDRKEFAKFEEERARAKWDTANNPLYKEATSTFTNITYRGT
T2 sequence (P08514 32-887 limits assumed): as the sequence (P08514 32-887 limits assumed) above
T2 sequence (P08514 891-1039 limits assumed): as the sequence (P08514 891-1039 limits assumed) above
T2 sequence (P05106 27-788): as the sequence (P05106 27-788) above

For `O=C(O)CCC1CCN(C(=O)CN2CCN(c3ccncc3)CC2)CC1` [Example 109, 3-[1-[2-[4-(4-Pyridyl)piperazin-1-yl]acetyl]piperidin-4-yl]propanoic acid], in assay [1] (setting [3]), the IC50 was 631 nM. For the same molecule, the Kb in assay [2] (setting [4]) was 316 nM.
Turning to `COC(=O)CC(NC(=O)c1ccc(N2CCN(c3ccncc3)CC2)cc1)c1ccccc1` (stereo not drawn) [Example 58, Methyl 3-[4-[4-(4-pyridyl)piperazin-1-yl]benzamido]-3-phenylpropionate], the IC50 in assay [1] (setting [3]) is 39800 nM. For the same molecule, in assay [2] (setting [4]), the Kb is 3160 nM.
As to `Cc1ccc(S(=O)(=O)NCC2CCN(C(=O)CN3CCN(c4ccncc4)CC3)CC2)cc1` [Example 222, N-[1-[2-[4-(4-Pyridyl)piperazin-1-yl]acetyl]piperidin-4-ylmethyl]-4-methylphenylsulphonamide], in assay [1] (setting [3]), the IC50 is 2510 nM. Besides, in assay [2] (setting [4]), the Kb was 316 nM.
For the molecule `COC(=O)C(Cc1ccc(OCc2cnccc2N(C)C)cc1)NC(=O)OCc1ccccc1` (stereo not drawn) [Example 114, Methyl3-(4-dimethylamninopyrid-3-yl)methoxyphenoxyl-2-benzyloxycarbonylaminopropanoate], the IC50 in assay [1] (setting [3]) is 2510 nM. In assay [2] (setting [4]), the Kb was > 100000 nM.
Consider `CCCCS(=O)(=O)NCc1ccc(CCN2CCN(c3ccncc3)CC2)cc1` [Example 185, N-[4-[2-[4-(4-Pyridyl)piperazin-1-yl]ethyl]phenyl]methyl-1-butanesulphonamide], for which the IC50 in assay [1] (setting [3]) is 15800 nM. Further, in assay [2] (setting [4]), the Kb was 3980 nM.
The corresponding values for `CCOC(=O)CCCOc1ccc(N2CCN(c3ccncc3)CC2)cc1` [Example 50, Ethyl 4-[4-[4-(4-pyridyl)piperazin-1-yl]phenoxy]butyrate] are > 100000 nM and 794 to 1000 nM.
In the case of `O=C(O)COc1ccc(C(=O)CCN2CCN(c3ccncc3)CC2)cc1` [Example 8, 4-[3-[4-(4-Pyridyl)piperazin-1-yl]propanoyl]phenoxyacetic acid], the IC50 in assay [1] (setting [3]) was 79.4 nM. Moreover, the Kb in assay [2] (setting [4]) is 316 nM.
With `O=C(N[C@@H](Cc1ccccc1)C(=O)O)c1ccc(N2CCN(c3ccncc3)CC2)cc1` [Example 191], in assay [1] (setting [3]), the IC50 was 3980 nM. In addition, the Kb in assay [2] (setting [4]) was > 100000 nM.
The like results for `CC(C)(Oc1ccc(C(=O)CN2CCN(c3ccncc3)CC2)cc1)C(=O)O` [Example 135, 2-[4-[2-[4-(4-Pyridyl)piperazin-1-yl]acetyl]phenoxy]isobutyric acid, dihydrobromide] were, in that order, > 100000 nM and 31600 nM.
As to `O=C(O)COc1ccc(NC(=O)CC2CCN(c3ccncc3)CC2)cc1` [Example 166, 4-[2-[1-(4-Pyridyl)piperidin-4-yl]acetamido]phenoxyacetic acid dihydrochloride], in assay [1] (setting [3]), the IC50 was 316 nM. The Kb in assay [2] (setting [4]) is 1580 nM.
For `O=C(O)CSc1ccc(C(=O)CN2CCN(c3ccncc3)CC2)cc1` [Example 10], the IC50 in assay [1] (setting [3]) was 1000 nM. Further, the Kb in assay [2] (setting [4]) was 2000 nM.
On to `O=C(O)COc1ccc(C(=O)NC2CCN(c3ccncc3)CC2)cc1` [Example 167, 4-[[1-(4-Pyridyl)piperidin-4-yl]aminocarbonyl]phenoxyacetic acid dihydrochloride], for which the IC50 in assay [1] (setting [3]) was 200 nM. In addition, the Kb in assay [2] (setting [4]) is 251 nM.
`COC(=O)c1cc2cc(C(=O)CN3CCN(c4ccncc4)CC3)ccc2o1` [Example 25, Methyl 5-[2-[4-(4-pyridyl)piperazin-1-yl]acetyl]benzofuran-2-carboxylate]: in assay [1] (setting [3]), the IC50 was 15800 nM. For the same molecule, in assay [2] (setting [4]), the Kb is 7940 nM.
With `CC(C)(C)OC(=O)COc1ccc(CC(=O)N2CCN(c3ccncc3)CC2)cc1` [Example 149, Tertiary butyl 4-[2-[4-(4-pyridyl)piperazin-1-yl]carbonylmethyl]-phenoxyacetate], in assay [1] (setting [3]), the IC50 was 20000 nM. Besides, the Kb in assay [2] (setting [4]) was 20000 nM.
On to `CN(CC(=O)O)C(=O)c1ccc(N2CCN(c3ccncc3)CC2)cc1` [Example 189, N-[4-[(4,4Pyridyl)piperazin-1-yl]benzoyl]-N-methylglycine, trifluoroacetate], for which the IC50 in assay [1] (setting [5]) is 316 nM. In addition, in assay [2] (setting [6]), the Kb is 1260 nM.
For `CC(C)(C)OC(=O)COC1CCN(C(=O)CN2CCN(c3ccncc3)CC2)CC1` [Example 106], the IC50 in assay [1] (setting [3]) was 39800 nM. Moreover, the Kb in assay [2] (setting [4]) is 15800 nM.
As for `O=C(O)COc1ccc(C(=O)CN2CCN(c3ccncc3)CC2)cc1` [Example 2], the “Test (b): pIC50 (-log(IC50)), 50% inhibition of biotinylated fibrinogen binding to GPIIb/IIIa” value in assay [1] is on record as 7.6. Also, the IC50 in assay [1] (setting [3]) was 25.1 nM. In addition, in assay [2] (setting [4]), the Kb was 50.1 to 79.4 nM.
Turning to `CCCCS(=O)(=O)Nc1ccc(C(=O)CN2CCN(c3ccncc3)CC2)cc1` [Example 20, N-4-[2-[4-(4-Pyridyl)piperazin-1-yl]acetyl]phenyl-1-butanesulphonamide], in assay [1] (setting [3]), the IC50 was 15800 nM. The Kb in assay [2] (setting [4]) was 5010 nM.
As to `CCCCS(=O)(=O)N[C@@H](Cc1ccc(OC2CCN(c3ccncc3)CC2)cc1)C(=O)O` [Example 38, 2-S-(n-Butylsulphonylamino)-3-[4-[1-(4-pyridyl)piperidin-4-yl]oxyphenyl]propionic acid], the IC50 in assay [1] (setting [3]) is 2 nM. In addition, the Kb in assay [2] (setting [4]) was 31.6 nM.
`O=C(O)CCNC(=O)c1cccc(N2CCN(c3ccncc3)CC2)n1` [Example 74, 3-[6-[4-(4-Pyridyl)piperazin-1-yl]pyrid-2-yl]carboxamidopropionic acid]: the IC50 in assay [1] (setting [3]) was 2000 nM. Further, in assay [2] (setting [4]), the Kb is 10000 nM.
Turning to `CS(=O)(=O)N[C@@H](Cc1ccc(OCCC2CCN(c3ccncc3)CC2)cc1)C(=O)O` [Example 88, 2-S-(Methylsulphonylamino)-3-[4-[2-[1-(4-pyridyl)piperidin-4-yl]ethoxy]phenyl]propionic acid], the IC50 in assay [1] (setting [3]) is 2.51 nM. In addition, the Kb in assay [2] (setting [4]) was 1 nM.
For the molecule `O=C(O)C=Cc1ccc(CN2CCN(c3ccncc3)CC2)cc1` [Example 77, 4-[[4-(4-Pyridyl)piperazin-1-yl]methylene]cinnamic acid], the IC50 in assay [1] (setting [3]) was 501 nM. Also, in assay [2] (setting [4]), the Kb was 7940 nM.
`CC(C(=O)c1ccc(OCC(=O)O)cc1)N1CCN(c2ccncc2)CC1` (racemic) [Example 17, RS 4-[2-[4-(4-Pyridyl)piperazin-1-yl]2-methylacetyl]phenoxyacetic acid sodium chloride adduct dihydrate] had an IC50 in assay [1] (setting [5]) of 20 nM. In addition, in assay [2] (setting [6]), the Kb was 39.8 nM.
Consider `O=C(O)COc1ccc(CC(=O)N2CCN(c3ccncc3)CC2)cc1` [Example 150, 4-[2-[4-(4-Pyridyl)piperazin-1-yl]carbonylmethyl]phenoxyacetic acid, dihydrochloride], for which the IC50 in assay [1] (setting [3]) was 316 nM. In addition, the Kb in assay [2] (setting [4]) is 316 nM.
As to `O=C(O)COc1ccc(C(=O)CN2CCN(c3ccncc3)CC2)cc1OCC(=O)O` [Example 4, 2,2'-[4-[2-[4-(4-Pyridyl)piperazin-1-yl]acetyl]phenylene-1,2-dioxy]diaceticacid], the IC50 in assay [1] (setting [3]) was 0.794 nM. For the same molecule, the Kb in assay [2] (setting [4]) was 1.26 nM.
On to `COC(=O)Cc1ccc(C(=O)CN2CCN(c3ccncc3)CC2)cc1` [Example 13, Methyl 4-[2-[4-(4-pyridyl)piperazin-1-yl]acetyl]phenylacetate], for which the IC50 in assay [1] (setting [3]) is 15800 to 39800 nM. For the same molecule, the Kb in assay [2] (setting [4]) is 5010 nM.
For the molecule `O=C(O)CCc1ccc(OCC2CCN(c3ccncc3)CC2)cc1` [Example 162, 3-[4-[1-(4-Pyridyl)piperidin-4-yl]methoxyphenyl]propionic acid], the IC50 in assay [1] (setting [3]) is 631 nM. In assay [2] (setting [4]), the Kb was 20000 nM.
The like results for `COC(=O)COc1c(Cl)cc(C(=O)CN2CCN(c3ccncc3)CC2)cc1Cl` [Example 116] were, in that order, 2510 nM and 2000 nM.
Consider `O=C(O)CC1(O)CCC(N2CCN(c3ccncc3)CC2)CC1` (stereo not drawn) [Example 102, cis-1-Hydroxy-4[4-(4-pyridyl)piperazin-1-yl]cyclohexaneacetic acid], for which the IC50 in assay [1] (setting [3]) is 1580 nM. Besides, the Kb in assay [2] (setting [4]) was 2000 nM.
In the case of `O=C(O)COc1ccc(C(=O)CC2CCN(c3ccncc3)CC2)cc1` [Example 174, 4-[2-[1-(4Pyridyl)piperidin-4-yl]acetyl]phenoxyacetic acid hydrochloride], the IC50 in assay [1] (setting [3]) is 5.01 to 10 nM. In addition, the Kb in assay [2] (setting [4]) was 158 to 398 nM.
As to `CCCCS(=O)(=O)N[C@@H](Cc1ccc(OCCCC2CCN(c3ccncc3)CC2)cc1)C(=O)O` [Example 82, 2-S-(n-Butylsulphonylamino)-3-[4-[3-[1-(4-pyridyl)piperidin-4-yl]propoxy]phenyl]propionic acid], in assay [1] (setting [3]), the IC50 is 12.6 nM. In assay [2] (setting [4]), the Kb is 501 nM.
The corresponding values for `CCOC(=O)Cc1ccc(C(=O)CN2CCN(c3ccncc3)CC2)cc1` [Example 14, Ethyl 4-[2-[4-(4-pyridyl)piperazin-1-yl]acetyl]phenylacetate] are > 100000 nM and 7940 nM.
The corresponding values for `O=C(O)COC1CCN(C(=O)CN2CCN(c3ccncc3)CC2)CC1` [Example 32, 2-[1-[2-[4-(4-Pyridyl)piperazin-1-yl]acetyl]piperidin-4-yloxy]acetic acid] are 50.1 nM and 200 nM.
As for `Cc1ccc(S(=O)(=O)N[C@@H](Cc2ccc(OCCC3CCN(c4ccncc4)CC3)cc2)C(=O)O)cc1` [Example 90, Lithium 2-S-(4-methylphenylsulphonylamino)-3-[4-[2-[1-(4-pyridyl)piperidin-4-yl]ethoxy]phenyl]propionate], the IC50 in assay [1] (setting [3]) is 3.16 nM. Moreover, the Kb in assay [2] (setting [4]) is 10 nM.
